These are literature values, as cited in patent US10603349B2, “Method for preparing pharmaceutical compositions of rhizomes from Alpinia galanga or Alpinia conchigera having a high content of 1′S-1′-acetoxychavicol acetate (ACA)” (NERTHUS APS, priority 2013, dated 2020).

Molecules are shown by their SMILES.

The test system of this data set is whole-body insulin resistance. Particulars: fructose-induced rat model of metabolic syndrome.

In the case of `O=c1c(O)c(-c2ccccc2)oc2cc(O)cc(O)c12` [Galangin, galangin], the “Blood glucose and insulin levels” value is given as “dose-dependently normalized”.
